13 molecules from US20220380341A1, “INHIBITORS OF HIV-1 NEF FOR THE TREATMENT OF HIV DISEASE” (priority 2018, published 2022) can be followed below.

pKd: −log10 of the molar value. Like-named read-outs stand apart in the source and are kept apart here.

Series [1] has as its system HIV-1NL4-3. Kind of series: HIV-1 infectivity assay in TZM-bl reporter cell line (LTR-luciferase, 48 h). Conditions: Human immunodeficiency virus 1, TZM-bl. It is filed as cell-based. In a few lines:
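Percent inhibition of HIV-1NL4-3 infectivity at 1 μM compound, from luciferase output of TZM-bl cells 48 h after infection. Scale anchors are DMSO-treated wild-type infection as zero and DMSO-treated Nef-defective infection as full Nef-dependent effect.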

In series [2] the target is HIV-1 NefNL4-3 (Human immunodeficiency virus type 1 group M subtype B, UniProt P03406, A33V/T15A/T51N/V11I). Description: Surface plasmon resonance binding to recombinant full-length Nef (NL4-3). The note with it: for RU30/RUNef (extent of binding): response units at 30 μM relative to Nef immobilized on the SPR chip; for Nef NL4-3 Binding, SPR 1:1 or 2-site fitting KD1: Table 2, 1:1 Langmuir fit where the KD2 cell says '1 to 1 fitting', else 2-site fit.

In series [3] the test system is TZM-bl cell line. It is filed as cell-based. Conditions: human, 1 μM. In a few lines:
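Read-out is luciferase from an integrated HIV-1 LTR reporter in TZM-bl cells, 48 h after HIV-1NL4-3 infection in the presence of 1 μM compound. Scale set by DMSO-treated wild-type-infected cells (0%) and Nef-defective virus (100% Nef-dependent effect). Cell Titer Blue measures cytotoxicity without virus.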

[4] abbreviates: 1.0 μM, TZM-bl reporter cell line, Table 4, read-out: % Infectivity Inhibition.
Setting [5] is: 48 h, Table 1, TZM-bl cells, 1 μM, 48 h, 100% = Nef-defective HIV-1, read-out: HIV-1 Infectivity % Inhibition Norm. to Δ-Nef @ 1 μM.
Setting [6] is: KD, M, Table 4, SPR fit 1:1 Langmuir, KD = koff/kon.
The mark [7] stands for this setting: Table 4, 1:1 Langmuir fit, T = 1/koff.
[8] abbreviates: KD, M, Table 4, SPR fit 2-step induced fit, KD = koff/kon × koff2/(koff2 + kon2).
Where [9] appears, read: Nef NL4-3 Binding, SPR 2-state fitting KD, Table 1, 2-step induced-fit model.
Where [10] appears, read: Table 4, 2-step induced fit, T = 1/koff2.
Where [11] appears, read: read-out: Nef NL4-3 Binding, SPR 1:1 or 2-site fitting KD2, Table 1, 2-site fit, second component.
[12] abbreviates: 48 h, Table 2, TZM-bl cells, 1 μM, 48 h, 100% = Nef-defective HIV-1, read-out: HIV-1 Infectivity % Inhibition Norm. to Δ-Nef @ 1 μM.

As for `CS(=O)(=O)N1CCC(c2nn(-c3nc4cc(Cl)ccc4[nH]3)c(O)c2CCn2nccn2)CC1` [Compound I-707, 1-(5-chloro-1H-1,3-benzodiazol-2-yl)-3-(1-methanesulfonylpiperidin-4-yl)-4-[2-(2H-1,2,3-triazol-2-yl)ethyl]-1H-pyrazol-5-ol], in series [1] (setting [4]), the inhibition at 1 µM is 0%. Further, the inhibition at 1 µM in series [1] (setting [5]) is -10.6%. In addition, in series [2], the pKd was 5.70 and the “RU30/RUNef (extent of binding)” value was 1.81E- 03. For the same molecule, the pKd in series [2] (setting [6]) was 5.70. In series [2] (setting [7]), the “T, minutes (residence time)” value is 4.33E + 00 minutes. For the same molecule, in series [3], the “% Cell Viability” value turned out to be 100% and the “Percent Viability @ 1 μM (TZM-bl cells)” value stood at 109.3%.
Regarding `O=C(NCC1CC1)c1ccc(-c2nn(-c3nc4ccccc4[nH]3)c(O)c2CCc2ccc(F)cc2)cc1` [Compound I-1201, 4-[1-(1H-1,3-benzodiazol-2-yl)-4-[2-(4-fluorophenyl)ethyl]-5-hydroxy-1H-pyrazol-3-yl]-N-(cyclopropylmethyl)benzamide], the inhibition at 1 µM in series [1] (setting [4]) and in series [1] (setting [5]) was 11.8% each time. Further, the pKd in series [2] is 6.43; in series [2] (setting [8]), 6.13; in series [2] (setting [9]) it was 6.13; in series [2] (setting [11]), 5.60. Also, in series [2] (setting [10]), the “T, minutes (residence time)” value stood at 2.06E + 03 minutes. In addition, the “RU30/RUNef (extent of binding)” value in series [2] was 2.17E- 02. Besides, the “% Cell Viability” value in series [3] amounted to 95.4%. Moreover, the “Percent Viability @ 1 μM (TZM-bl cells)” value in series [3] is 95.4%.
For `O=C(c1ccc(F)cc1)N1CCC(CCc2c(C3CC3)nn(-c3nc4cc(Cl)ccc4[nH]3)c2O)CC1` [Compound I-710, 1-(5-chloro-1H-1,3-benzodiazol-2-yl)-3-cyclopropyl-4-{2-[1-(4-fluorobenzoyl)piperidin-4-yl]ethyl}-1H-pyrazol-5-ol], the inhibition at 1 µM in series [1] (setting [4]) and in series [1] (setting [5]) was 2.5% each time. For the same molecule, the pKd was 5.61 in series [2] (setting [8]), 5.61 in series [2] (setting [9]) and 5.01 in series [2] (setting [11]). Also, the “T, minutes (residence time)” value in series [2] (setting [10]) worked out at 4.16E + 00 minutes. In addition, the “RU30/RUNef (extent of binding)” value in series [2] is 2.12E- 02. Further, the “% Cell Viability” value in series [3] worked out at 100%. Moreover, the “Percent Viability @ 1 μM (TZM-bl cells)” value in series [3] was found to be 106.9%.
With `Oc1c(CCc2ccc(F)cc2)c(C2CCN(Cc3ccccn3)CC2)nn1-c1nc2ccccc2[nH]1` [Compound I-802, 1-(1H-1,3-benzodiazol-2-yl)-4-[2-(4-fluorophenyl)ethyl]-3-{1-[(pyridin-2-yl)methyl]piperidin-4-yl}-1H-pyrazol-5-ol], the inhibition at 1 µM in series [1] (setting [4]) and in series [1] (setting [5]) was 4.4% in each case. The pKd in series [2] was 6.35; in series [2] (setting [8]) it was 6.74; in series [2] (setting [9]), 6.74. Further, the “T, minutes (residence time)” value in series [2] (setting [10]) came out at 2.21E + 01 minutes. In series [2], the “RU30/RUNef (extent of binding)” value turned out to be 2.48E- 03. In addition, the “% Cell Viability” value in series [3] came out at 99.3%. The “Percent Viability @ 1 μM (TZM-bl cells)” value in series [3] was determined as 99.3%.
As to `CS(=O)(=O)c1cccc(-c2nn(-c3cc(C(F)(F)F)n[nH]3)c(O)c2CCC2CCOCC2)c1` [Compound I-608, 3-(3-methanesulfonylphenyl)-4-[2-(oxan-4-yl)ethyl]-5′-(trifluoromethyl)-2′H-[1,3′-bipyrazol]-5-ol], the inhibition at 1 µM in series [1] (setting [12]) was found to be 5.3%. Besides, the “Nef NL4-3 Binding, SPR 1:1 or 2-site fitting KD1” value in series [2] was “No interaction”. Besides, the “Percent Viability @ 1 μM (TZM-bl cells)” value in series [3] was determined as 101.2%.
For the molecule `CS(=O)(=O)c1ccc(-c2nn(-c3cc(C(F)(F)F)n[nH]3)c(O)c2CCC2CCOCC2)cc1` [Compound I-611, 3-(4-methanesulfonylphenyl)-4-[2-(oxan-4-yl)ethyl]-5′-(trifluoromethyl)-2′H-[1,3′-bipyrazol]-5-ol], in series [1] (setting [12]), the inhibition at 1 µM was found to be 65.7%. Further, in series [2], the “Nef NL4-3 Binding, SPR 1:1 or 2-site fitting KD1” value is recorded as “No interaction”. Also, the “Percent Viability @ 1 μM (TZM-bl cells)” value in series [3] worked out at 99.6%.
On to `CC(C)(C)OC(=O)N1CCC(c2nn(-c3nc4ccncc4[nH]3)c(O)c2CCc2ccc(F)cc2)CC1` [Compound I-221, tert-butyl 4-{4-[2-(4-fluorophenyl)ethyl]-5-hydroxy-1-{3H-imidazo[4,5-c]pyridin-2-yl}-1H-pyrazol-3-yl}piperidine-1-carboxylate], for which, in series [1] (setting [5]), the inhibition at 1 µM came to 10.6%. The pKd in series [2] was 4.89. In addition, the “Percent Viability @ 1 μM (TZM-bl cells)” value in series [3] worked out at 103.1%.
With `Oc1c(CCc2ccc(F)cc2)c(CNCc2ccncc2)nn1-c1nc2ccccc2[nH]1` [Compound I-810, 1-(1H-1,3-benzodiazol-2-yl)-4-[2-(4-fluorophenyl)ethyl]-3-({[(pyridin-4-yl)methyl]amino}methyl)-1H-pyrazol-5-ol], the inhibition at 1 µM in series [1] (setting [4]) and in series [1] (setting [5]) was 42.8% each time. The pKd was 7.15 in series [2], 5.45 in series [2] (setting [8]), 5.45 in series [2] (setting [9]) and 5.50 in series [2] (setting [11]). Also, the “T, minutes (residence time)” value in series [2] (setting [10]) is 5.97E + 00 minutes. For the same molecule, the “RU30/RUNef (extent of binding)” value in series [2] amounted to 3.75E- 03. For the same molecule, in series [3], the “% Cell Viability” value amounted to 100%. The “Percent Viability @ 1 μM (TZM-bl cells)” value in series [3] was 101.3%.
Take `CC(C)(O)C(=O)N1CCC(CCc2c(-c3cccc(S(C)(=O)=O)c3)nn(-c3nc4ccccc4[nH]3)c2O)CC1` [Compound I-776, 1-(4-{2-[1-(1H-1,3-benzodiazol-2-yl)-5-hydroxy-3-(3-methanesulfonylphenyl)-1H-pyrazol-4-yl]ethyl}piperidin-1-yl)-2-hydroxy-2-methylpropan-1-one]: the inhibition at 1 µM in series [1] (setting [4]) and in series [1] (setting [5]) was 19.3% throughout. For the same molecule, the values for the pKd in series [2], in series [2] (setting [8]) and in series [2] (setting [9]) were 6.41, 5.92 and 5.92, respectively. For the same molecule, the “T, minutes (residence time)” value in series [2] (setting [10]) was 1.06E + 01 minutes. The “RU30/RUNef (extent of binding)” value in series [2] came out at 5.14E- 03. Besides, the “% Cell Viability” value in series [3] amounted to 97.1%. Moreover, in series [3], the “Percent Viability @ 1 μM (TZM-bl cells)” value worked out at 97.1%.
Take `CC(=O)N1CCC(CCc2c(-c3ccc(C(F)(F)F)cc3)nn(-c3nc4ccccc4[nH]3)c2O)CC1` [Compound I-719, 1-(4-{2-[1-(1H-1,3-benzodiazol-2-yl)-5-hydroxy-3-[4-(trifluoromethyl)phenyl]-1H-pyrazol-4-yl]ethyl}piperidin-1-yl)ethan-1-one]: the values for the inhibition at 1 µM in series [1] (setting [4]) and in series [1] (setting [5]) were 0% and -8.3%, respectively. Further, the pKd in series [2] was 5.66; in series [2] (setting [8]), 6.35; in series [2] (setting [9]), 6.35. Further, the “T, minutes (residence time)” value in series [2] (setting [10]) is 4.44E + 01 minutes. Moreover, in series [2], the “RU30/RUNef (extent of binding)” value came to 9.42E- 03. Moreover, in series [3], the “% Cell Viability” value is recorded as 98.0%. The “Percent Viability @ 1 μM (TZM-bl cells)” value in series [3] is given as 98.0%.
Consider `O=C(c1ccoc1)N1CCC(c2nn(-c3nc4ccccc4[nH]3)c(O)c2CCc2ccc(F)cc2)CC1` [Compound I-737, 1-(1H-1,3-benzodiazol-2-yl)-4-[2-(4-fluorophenyl)ethyl]-3-[1-(furan-3-carbonyl)piperidin-4-yl]-1H-pyrazol-5-ol], for which the inhibition at 1 µM in series [1] (setting [4]) is 0%; in series [1] (setting [5]) it was -4.8%. The pKd is 11.31 in series [2], 8.77 in series [2] (setting [8]), 8.77 in series [2] (setting [9]) and 5.40 in series [2] (setting [11]). Besides, the “T, minutes (residence time)” value in series [2] (setting [10]) is listed as 9.06E + 03 minutes. For the same molecule, the “RU30/RUNef (extent of binding)” value in series [2] was found to be 1.36E- 02. The “% Cell Viability” value in series [3] is recorded as 93.0%. Also, in series [3], the “Percent Viability @ 1 μM (TZM-bl cells)” value was 93.0%.
As to `Oc1c(CCC2CCOCC2)c(-c2cccc(F)c2)nn1-c1nc2ccccc2[nH]1` [Compound I-150, 1-(1H-1,3-benzodiazol-2-yl)-3-(3-fluorophenyl)-4-[2-(oxan-4-yl)ethyl]-1H-pyrazol-5-ol], the inhibition at 1 µM in series [1] (setting [4]) and in series [1] (setting [5]) was 53.9% throughout. Moreover, the pKd in series [2] (setting [8]) was 5.97; in series [2] (Nef NL4-3 Binding, SPR 1:1 or 2-site fitting KD2, Table 1, 2-site fit, second component) it was 4.98; in series [2] (setting [9]) it was 5.97. For the same molecule, the “T, minutes (residence time)” value in series [2] (setting [10]) amounted to 9.69E + 00 minutes. In series [2], the “RU30/RUNef (extent of binding)” value is 4.75E- 03. Further, the “% Cell Viability” value in series [3] is 77.7%. The “Percent Viability @ 1 μM (TZM-bl cells)” value in series [3] is 77.7%.
As for `CN(C)C(=O)N1CCCC(Cc2c(C3CC3)nn(-c3nc4ccccc4[nH]3)c2O)C1` (stereo not shown) [Compound I-782, 3-{[1-(1H-1,3-benzodiazol-2-yl)-3-cyclopropyl-5-hydroxy-1H-pyrazol-4-yl]methyl}-N,N-dimethylpiperidine-1-carboxamide], in series [1] (setting [4]), the inhibition at 1 µM was 61.1%. For the same molecule, in series [2] (setting [6]), the pKd was 5.03. Moreover, the “T, minutes (residence time)” value in series [2] (setting [7]) is 3.62E + 00 minutes. Besides, the “RU30/RUNef (extent of binding)” value in series [2] is given as 5.13E- 03. In addition, the “% Cell Viability” value in series [3] is given as 98.8%.
